Source: patent publication US8871767B2, “2-arylimidazo[1,2-B]pyridazine, 2-phenylimidazo[1,2-A]pyridine, and 2-phenylimidazo[1,2-A]pyrazine derivatives” (Hengrui (USA) Ltd., priority 2010, dated 2014)
Like-named read-outs stand apart in the source and are kept apart here.

Tests used:
[1] = tested on: Hedgehog pathway activation on 10T1/2/Smo#3 cells (C3H10T1/2 cells transfected with human Smoothened receptor); assay: Hedgehog pathway activation on 10T1/2/Smo#3 cells measured by ALP activity; type: cell-based; conditions: Mus musculus, C3H 10T1/2, 10T1/2/Smo#3 cells
Method: Hedgehog conditioned media was obtained by transfecting 293H cells with the full length gene encoding human Sonic Hedgehog (hShh) inserted into the pCMV6 expression vector, which contains a neomycin selectable marker and expresses the protein of interest with a C-terminal FLAG affinity tag. After selection in G418 containing media, conditioned media from Hedgehog expressing clones were tested for the ability to activate the hedgehog-responsive GLi-luciferase reporter in the Shh Light II cell line obtained by license from John Hopkins University (Taipale J, et al. Effects of oncogenic mutations in Smoothened and Patched can be reversed by cyclopamine. Nature 406: 1005-1009, 2000).
C3H10T1/2 cells were transfected with a pCMV expression vector containing the full length gene sequence encoding the human Smoothened receptor. Pooled cells, designated 10T1/2/Smo#3, growing in G418 selection media responded to activation by 10-20% conditioned hShh media with an approximate 5-10 fold increase in alkaline phosphaste (ALP) activity over untransfected parent C3H10T1/2 cells as measured by the conversion of the free acid of 4-methylumbelliferyl phosphate to a fluorescent product.
A test compound library was screened against hShh and 500 nM SAG (a direct agonist of the Smoothened receptor) activated 10T1/2/Smo#3 cells and Shh Light II reporter cells for the ability to block Hedgehog pathway activation. Concurrently, cell viability was measured by utilizing Celltiter-Blue® (Promega, Madison Wis.) viability assay. Active compounds were defined as those that inhibited Hedgehog signaling by greater than 50% with no concurrent loss in cell viability.
Their inhibitory activity against Hedgehog pathway activation on 10T1/2/Smo#3 cells as measured by ALP activity and Shh Light II reporter cells as measured by luciferase activity is shown in Table 1 below. In Table 1, +++ stands for an IC50 value that is less than 0.3 μM, ++ between 0.3 and 3 μM, + between 3 and 30 μM.
Additional data for compounds of the invention is shown below in Table 2. Their inhibitory activities against Hedgehog pathway activation are shown as IC50 values in μM on 10T1/2/Smo#3 cells as measured by ALP activity, or on Shh Light II reporter cells as measured by luciferase activity (hShh activation).

[2] = tested on: Hedgehog pathway activation (GLi-luciferase reporter) in Shh Light II reporter cells; assay: Hedgehog pathway activation on Shh Light II reporter cells measured by luciferase activity; type: cell-based
Summary of the method: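 Shh Light II reporter cells carrying a hedgehog-responsive GLi-luciferase reporter were stimulated either with 500 nM SAG, a direct Smoothened agonist, or with conditioned media containing human Sonic Hedgehog (hShh). Test compounds were evaluated for blocking this pathway activation, quantified by luciferase activity. Cell viability was monitored in parallel with the Celltiter-Blue® assay.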

[3] = measured by ALP activity, read-out: ALP (IC50, inhibition of Hedgehog pathway activation)
[4] = Mus musculus, Shh Light II, hShh activation, read-out: Shh (IC50, inhibition of Hedgehog pathway activation)
[5] = hShh activation, ALP activity, read-out: 10T1/2/Smo#3 ALP activity (hShh Activation)
[6] = Mus musculus, Shh Light II, SAG activation (500 nM SAG), read-out: Shh Light II luciferase activity (SAG activation)
[7] = Mus musculus, Shh Light II, hShh activation, read-out: Shh Light II luciferase activity (hShh activation)

| Structure (SMILES) | IC50 [1, 3] [nM] | IC50 [2, 4] [nM] | IC50 [1, 5] [nM] | IC50 [2, 6] [nM] | IC50 [2, 7] [nM] | IC50 ([2]; hShh activation, read-out: Shh (IC50, inhibition of Hedgehog pathway activation)) [nM] |
| --- | --- | --- | --- | --- | --- | --- |
| CCc1ccc(-c2cn3nc(-c4cccnc4C(F)(F)F)ccc3n2)cc1NC(=O)N1CC(F)(F)C1 [Example 695, N-(2-ethyl-5-(6-(2-(trifluoromethyl)pyridin-3-yl)imidazo[1,2-b]pyridazin-2-yl)phenyl)-3,3-difluoroazetidine-1-carboxamide] | 158 | 368 | – | – | – | – |
| Cc1ccc(-c2cn3nc(-c4ccc(C#N)cc4F)ccc3n2)cc1NC(=O)C(C)(C)C [compound 545] | 443 | 82 | – | – | – | – |
| CC(C)(C)C(=O)Nc1cc(-c2cn3nc(-c4ccccn4)ccc3n2)ccc1C(F)(F)F [Example 141, N-(5-(6-(pyridin-2-yl)imidazo[1,2-b]pyridazin-2-yl)-2-(trifluoromethyl)phenyl)pivalamide] | 9060 | 260 | 3000 to 30000 | < 300 | < 300 | – |
| Cc1ccc(-c2cn3nc(-c4cccnc4C(F)(F)F)ccc3n2)cc1-c1cscn1 [compound 512] | 205 | 311 | – | – | – | – |
| Cc1c(-c2ccccc2)nc2ccc(N3CCN(Cc4ccc(F)cc4F)CC3)nn12 [Example 164, 6-(4-(2,4-difluorobenzyl)piperazin-1-yl)-3-methyl-2-phenylimidazo[1,2-b]pyridazine] | 550 | 463 | – | – | – | – |
| Cc1ccc(-c2cn3nc(NCc4ccc(C(=O)NOC5CCCCO5)cc4)ccc3n2)cc1NC(=O)C(C)(C)C (stereo not drawn) [compound 600] | > 10000 | 130 | – | – | – | – |
| Cc1ccc(-c2cn3nc(-c4cccnc4C(F)(F)F)ccc3n2)cc1NC(=O)CCCCCCC(=O)NOC1CCCCO1 (stereo not drawn) [compound 557, N1-(2-methyl-5-(6-(2-(trifluoromethyl)pyridin-3-yl)imidazo[1,2-b]pyridazin-2-yl)phenyl)-N8-((tetrahydro-2H-pyran-2-yl)oxy)octanediamide] | 1080 | 140 | – | – | – | – |
| Cc1ccc(-c2cn3nc(-c4cc(F)ccc4C(F)(F)F)ccc3n2)cc1NC(=O)C(C)(C)C [Example 281, N-(5-(6-(5-fluoro-2-(trifluoromethyl)phenyl)imidazo[1,2-b]pyridazin-2-yl)-2-methylphenyl)pivalamide] | 38 | 72 | – | – | – | – |
| COc1cnccc1-c1ccc2nc(-c3ccc(C(F)(F)F)c(NC(=O)C(C)(C)C)c3)cn2n1 [Example 382, N-(5-(6-(3-methoxypyridin-4-yl)imidazo[1,2-b]pyridazin-2-yl)-2-(trifluoromethyl)phenyl)pivalamide] | 536 | 1220 | – | – | – | – |
| CC(C)(C)C(=O)Nc1cc(-c2cn3cc(-c4ccccc4F)ccc3n2)ccc1C(F)(F)F [Example 83, N-(5-(6-(2-fluorophenyl)imidazo[1,2-a]pyridin-2-yl)-2-(trifluoromethyl)phenyl)pivalamide] | 1350 | 1010 | 300 to 3000 | 300 to 3000 | 300 to 3000 | – |
| CCOc1ccc2nc(-c3ccc(C(F)(F)F)c(NC(=O)C(C)C)c3)cn2n1 [Example 185, N-(5-(6-ethoxyimidazo[1,2-b]pyridazin-2-yl)-2-(trifluoromethyl)phenyl)isobutyramide] | 1670 | 1780 | – | – | – | – |
| CC(C)(C)C(=O)Nc1cc(-c2cn3nc(-c4cncnc4)ccc3n2)ccc1C(F)(F)F [Example 372, N-(5-(6-(pyrimidin-5-yl)imidazo[1,2-b]pyridazin-2-yl)-2-(trifluoromethyl)phenyl)pivalamide] | 633 | 827 | – | – | – | – |
| COc1ccncc1-c1ccc2nc(-c3ccc(C(F)(F)F)c(NC(=O)C(C)(C)C)c3)cn2n1 [Example 384, N-(5-(6-(4-methoxypyridin-3-yl)imidazo[1,2-b]pyridazin-2-yl)-2-(trifluoromethyl)phenyl)pivalamide] | 227 | 689 | – | – | – | – |
| Cc1ccc(-c2cn3nc(-c4ccc(C(N)=NO)cc4Cl)ccc3n2)cc1NC(=O)C(C)(C)C [compound 568] | 99 | 100 | – | – | – | – |
| CC(C)(C)C(=O)Nc1cc(-c2cn3cc(Cl)ncc3n2)ccc1C(F)(F)F [Example 85, N-(5-(6-chloroimidazo[1,2-a]pyrazin-2-yl)-2-(trifluoromethyl)phenyl)pivalamide] | 1320 | 4390 | – | – | – | – |
| CCOc1ccc2nc(-c3ccc(C(F)(F)F)c(NC(=O)c4ccccc4)c3)cn2n1 [Example 191, N-(5-(6-ethoxyimidazo[1,2-b]pyridazin-2-yl)-2-(trifluoromethyl)phenyl)benzamide] | 1570 | 579 | – | – | – | – |
| Cc1ccc(-c2cn3nc(-c4ccc5nonc5c4)ccc3n2)cc1NC(=O)C(C)(C)C [Example 449, N-(5-(6-(benzo[c][1,2,5]oxadiazol-5-yl)imidazo[1,2-b]pyridazin-2-yl)-2-methylphenyl)pivalamide] | 281 | 311 | – | – | – | – |
| CC(C)(C)C(=O)Nc1cc(-c2cn3nc(N4CCC(O)C4)ccc3n2)ccc1C(F)(F)F (stereo not drawn) [Example 337, N-(5-(6-(3-hydroxypyrrolidin-1-yl)imidazo[1,2-b]pyridazin-2-yl)-2-(trifluoromethyl)phenyl)pivalamide] | 194 | – | – | – | – | 308 |
| Cc1ccc(-c2nc3ccc(-c4cccnc4C(F)(F)F)nn3c2Cl)cc1NC(=O)C(C)(C)C [Example 641, N-(5-(3-chloro-6-(2-(trifluoromethyl)pyridin-3-yl)imidazo[1,2-b]pyridazin-2-yl)-2-methylphenyl)pivalamide] | 34 | 76 | – | – | – | – |
| C[C@@H]1CCCC[C@H]1Oc1ccc2nc(-c3ccc(C(F)(F)F)c(NC(=O)C(C)(C)C)c3)cn2n1 [Example 464, N-(5-(6-((1R,2R)-2-methylcyclohexyloxy)imidazo[1,2-b]pyridazin-2-yl)-2-(trifluoromethyl)phenyl)pivalamide] | 400 | 352 | – | – | – | – |
| CN[C@@H]1CCN(c2ccc3nc(-c4ccc(C)c(NC(=O)C(C)(C)C)c4)cn3n2)C1 [Example 391, (R)-N-(2-methyl-5-(6-(3-(methylamino)pyrrolidin-1-yl)imidazo[1,2-b]pyridazin-2-yl)phenyl)pivalamide] | 123 | 57 | < 300 | 300 to 3000 | < 300 | – |
| CC(C)(C)C(=O)Nc1cc(-c2cn3nc(-c4ccccc4C(F)(F)F)ccc3n2)ccc1C(F)(F)F [Example 209, N-(2-(trifluoromethyl)-5-(6-(2-(trifluoromethyl)phenyl)imidazo[1,2-b]pyridazin-2-yl)phenyl)pivalamide] | 97 | 72 | – | – | – | – |
| CC(C)(C)OC(=O)n1cccc1-c1ccc2nc(-c3ccc(C(F)(F)F)c(NC(=O)C(C)(C)C)c3)cn2n1 [Example 178, tert-butyl 2-(2-(3-pivalamido-4-(trifluoromethyl)phenyl)imidazo[1,2-b]pyridazin-6-yl)-1H-pyrrole-1-carboxylate] | 607 | 468 | – | – | – | – |
| CCc1ccc(-c2cn3nc(-c4cccnc4C(F)(F)F)ccc3n2)cc1NC(=O)C1CCCC1 [Example 688, N-(2-ethyl-5-(6-(2-(trifluoromethyl)pyridin-3-yl)imidazo[1,2-b]pyridazin-2-yl)phenyl)cyclopentanecarboxamide] | 578 | 103 | – | – | – | – |
